Molecules are shown by their SMILES.

Series [1] can be described thus: Skin irritation test, 24 h patch test. It is filed as in vivo, human. The method, then:
In order to evaluate the skin safety of a human body on 1,3-butanediol, 1,2-butanediol and 1,2-hexanediol (conventionally used diol), which are similar to meso-2,3-butanediol, S,S-2,3-butanediol and R,R-2,3-butanediol that are stereoisomers of 2,3-butanediol except that the position of a hydroxy group is different, the patch test was carried out for 24 hours. The patch was attached to the upper part of the subject's back, and 20 μl of the prepared test substance was applied to the patch using an IQ chamber (chemotechique, Sweeden). The patch was attached and after the lapse of 24 hours, the patch was removed. After removal of the patch, the first reading was performed after 30 minutes, and the second reading was performed after 24 hours.
In order to investigate the intensity of the skin irritation of the samples, weighting values were given according to the degree of positive reaction of the skin, skin average reactivity was determined, and the skin irritation of the sample was judged. The skin average reactivity was calculated using the mathematical formula 1 below, and the determination criteria are as shown in Table 5 below.

For series [2], the system named is Aspergillus niger (ATCC 16404). As to the kind of experiment: Antibacterial activity test (MIC). The note with it: broth culture, 25 to 32° C., 24 to 72 hours; tested 0.01 to 10% (v/v). It is filed as cell-based. The method, then:
(§1) In order to compare the antibacterial activities by the position and stereoscopic orientation of the hydroxyl group of the diol, the antibacterial activities (minimum inhibitory concentration, MIC) against the samples described in Table 1 below, that is, six kinds of diols such as 1,3-butanediol, were measured.
(§2) The antibacterial activity measurement tests were performed using bacteria, yeasts and molds, such as Escherichia coli (ATCC 8739), Pseudomonas aeruginosa (ATCC 9027), Staphylococcus aureus (ATCC 6538), Candida albicans (ATCC 10231), and Aspergillus niger; (ATCC 16404). Respective substances or the like were added to Tryptic Soy broth and Sabouraud Dextrose (SD) broth at a concentration of 0.01 to 10% (v/v), the culture solution was prepared in a liquid phase, and the bacteria, yeasts, and molds were inoculated, and then cultured at 25 to 32° C. for 24 to 72 hours to observe the state of the bacteria.

Series [3] deals with Candida albicans (ATCC 10231). As to the kind of experiment: Antibacterial activity test (MIC). Type of series: cell-based. The settings on record: broth culture, 25 to 32° C., 24 to 72 hours; tested 0.01 to 10% (v/v). The method, then:
as §1, §2

Series [4] concerns Staphylococcus aureus (ATCC 6538). Briefly: Antibacterial activity test (MIC). Type of series: cell-based. The settings on record: broth culture, 25 to 32° C., 24 to 72 hours; tested 0.01 to 10% (v/v). The method, then: as §1, §2
Series [5] concerns Pseudomonas aeruginosa (ATCC 9027). As to the kind of experiment: Antibacterial activity test (MIC). Type of series: cell-based. The settings on record: broth culture, 25 to 32° C., 24 to 72 hours; tested 0.01 to 10% (v/v). The protocol: as §1, §2
In series [6] the test system is Escherichia coli (ATCC 8739). Briefly: Antibacterial activity test (MIC). Type of series: cell-based. The note with it: broth culture, 25 to 32° C., 24 to 72 hours; tested 0.01 to 10% (v/v). The method, then:
as §1, §2

[7] abbreviates: Content 30%, 20 μl, 24 h patch on back, less than 1 = no irritation, 1-3 mild, 3-5 moderate.

In the case of `C[C@H](O)[C@@H](C)O` [Meso-2,3-butanediol, meso-2,3-butanediol], the “Skin irritation Score (skin average reactivity)” value (“Skin irritation Score” below) in series [1] (human, in vivo, 24 h, 30 %) amounted to 0.41. Besides, the “numerical value of skin irritation, in words” value in series [1] (in vivo) is on record as “lower”. Further, the “minimum inhibitory concentration, MIC, A. niger” value in series [2] was 1.25 % (v/v). In addition, in series [3], the “minimum inhibitory concentration, MIC, C. albicans” value was 2.5 % (v/v). The “minimum inhibitory concentration, MIC, S. aureus” value in series [4] is 5 % (v/v). For the same compound, in series [5], the “minimum inhibitory concentration, MIC, P. aeruginosa” value is listed as 2.5 % (v/v). The “minimum inhibitory concentration, MIC, E. coli” value in series [6] was 1.25 % (v/v).

`CCC(O)CO` (stereo not shown) [1,2-butanediol]: the “Skin irritation Score” value in series [1] (setting [7]) was 2.48. The “minimum inhibitory concentration, MIC, A. niger” value in series [2] is recorded as 2.5 % (v/v). In addition, the “minimum inhibitory concentration, MIC, C. albicans” value in series [3] is recorded as 5 % (v/v). In addition, the “minimum inhibitory concentration, MIC, S. aureus” value in series [4] was 1.25 % (v/v). Further, the “minimum inhibitory concentration, MIC, P. aeruginosa” value in series [5] is on record as 2.5 % (v/v). Moreover, the “minimum inhibitory concentration, MIC, E. coli” value in series [6] is recorded as 5 % (v/v).

Turning to `CCCCC(O)CO` (stereo not shown) [1,2-hexanediol], the “Skin irritation Score” value in series [1] (human, in vivo, 24 h, 20 %) is 2.54. Further, the “minimum inhibitory concentration, MIC, A. niger” value in series [2] is listed as 0.625 % (v/v). In addition, the “minimum inhibitory concentration, MIC, C. albicans” value in series [3] was 1.25 % (v/v). The “minimum inhibitory concentration, MIC, S. aureus” value in series [4] is recorded as 2.5 % (v/v). For the same compound, the “minimum inhibitory concentration, MIC, P. aeruginosa” value in series [5] is reported as 1.25 % (v/v). Also, the “minimum inhibitory concentration, MIC, E. coli” value in series [6] was 1.25 % (v/v).

As for `C[C@H](O)[C@H](C)O` [S,S-2,3-butanediol], the “Skin irritation Score” value in series [1] (human, in vivo, 24 h, 30 %) is reported as 2.12. In addition, in series [2], the “minimum inhibitory concentration, MIC, A. niger” value is 1.25 % (v/v). Further, the “minimum inhibitory concentration, MIC, C. albicans” value in series [3] is listed as 5 % (v/v). Also, in series [4], the “minimum inhibitory concentration, MIC, S. aureus” value is given as 2.5 % (v/v). For the same compound, in series [5], the “minimum inhibitory concentration, MIC, P. aeruginosa” value is reported as 5 % (v/v). Besides, the “minimum inhibitory concentration, MIC, E. coli” value in series [6] is 5 % (v/v).

For `C[C@@H](O)[C@@H](C)O` [R,R-2,3-butanediol], the “Skin irritation Score” value in series [1] (human, in vivo, 24 h, 30 %) came out at 1.45. Moreover, the “minimum inhibitory concentration, MIC, A. niger” value in series [2] is 5 % (v/v). The “minimum inhibitory concentration, MIC, C. albicans” value in series [3] is listed as 5 % (v/v). In addition, the “minimum inhibitory concentration, MIC, S. aureus” value in series [4] is 10 % (v/v). Besides, in series [5], the “minimum inhibitory concentration, MIC, P. aeruginosa” value is listed as 5 % (v/v). The “minimum inhibitory concentration, MIC, E. coli” value in series [6] is 2.5 % (v/v).

In the case of `CC(O)CCO` (stereo not shown) [1,3-butanediol], in series [1] (setting [7]), the “Skin irritation Score” value is given as 0.52. The “minimum inhibitory concentration, MIC, A. niger” value in series [2] was >10 % (v/v). Moreover, the “minimum inhibitory concentration, MIC, C. albicans” value in series [3] was >10 % (v/v). Also, the “minimum inhibitory concentration, MIC, S. aureus” value in series [4] is on record as >10 % (v/v). In series [5], the “minimum inhibitory concentration, MIC, P. aeruginosa” value is reported as >10 % (v/v). Moreover, the “minimum inhibitory concentration, MIC, E. coli” value in series [6] is recorded as >10 % (v/v).

Values taken from patent US10525017B2, “Composition containing meso-2,3-butanediol” (Amorepacific Corporation, priority 2014, dated 2020).
